Columns and labels:
[1] = target: p110α/p85 (Homo sapiens, UniProt P42336); experiment: Inhibition of isolated enzyme (lipid kinase assay, [γ33P]ATP, TLC); assay type: biochemical; settings: recombinant enzyme, 100 μM ATP, 1 hr room temperature, average of two experiments
Description: (§1) Compounds were evaluated for their ability to inhibit Class I PI 3-kinase enzymes p110δ/p85, p110α/p85, and p110β/p85. Reaction mixtures comprising 0.1 μg of a recombinant enzyme, 10 μg of L-α-phosphatidylinositol, and 2× Lipid Kinase Buffer (40 mM Tris-HCl, pH 7.4, 200 mM NaCl, 1 mM EDTA), which contains either DMSO only as a control or the test compound in DMSO (the final DMSO concentration is 1%), were activated by the addition of an ATP mix (5 mM MgCl2, 100 μM ATP, and 0.1 μL [γ^33P]ATP). Reactions were incubated at room temperature for 1 hr, and then stopped by the addition of 1M HCl. The lipids were then extracted using a two step procedure. Firstly, 200 μL of chloroform/methanol (1:1) was added, the biphasic reactions mixed and centrifuged briefly, and the inorganic phase was removed and discarded. Following this, 80 μL of methanol:HCl (1:1) was added and the same procedure followed. The organic phase (70 μL) was then transferred to a clean 1.6 mL tube and the reactions were dried using a Speedvac, with no heating, for […]. The reactions were spotted onto TLC plates (Merck Ltd) and developed for 1 hr in propanol-1:2 M acetic acid (13:7). The TLC plates were then dried at room temperature and quantified using a phosphorimager (StormImager, Amersham). Nine compound concentrations were used for each test compound to determine its IC50 value. Each experiment was performed twice and the average IC50 value is used herein.

[2] = target: p110δ/p85 (Homo sapiens, UniProt O00329); experiment: as above; assay type: biochemical; settings: recombinant enzyme, 100 μM ATP, 1 hr room temperature, average of two experiments
Description: as §1

Sequence of p110δ/p85 (O00329 whole entry, species assumed): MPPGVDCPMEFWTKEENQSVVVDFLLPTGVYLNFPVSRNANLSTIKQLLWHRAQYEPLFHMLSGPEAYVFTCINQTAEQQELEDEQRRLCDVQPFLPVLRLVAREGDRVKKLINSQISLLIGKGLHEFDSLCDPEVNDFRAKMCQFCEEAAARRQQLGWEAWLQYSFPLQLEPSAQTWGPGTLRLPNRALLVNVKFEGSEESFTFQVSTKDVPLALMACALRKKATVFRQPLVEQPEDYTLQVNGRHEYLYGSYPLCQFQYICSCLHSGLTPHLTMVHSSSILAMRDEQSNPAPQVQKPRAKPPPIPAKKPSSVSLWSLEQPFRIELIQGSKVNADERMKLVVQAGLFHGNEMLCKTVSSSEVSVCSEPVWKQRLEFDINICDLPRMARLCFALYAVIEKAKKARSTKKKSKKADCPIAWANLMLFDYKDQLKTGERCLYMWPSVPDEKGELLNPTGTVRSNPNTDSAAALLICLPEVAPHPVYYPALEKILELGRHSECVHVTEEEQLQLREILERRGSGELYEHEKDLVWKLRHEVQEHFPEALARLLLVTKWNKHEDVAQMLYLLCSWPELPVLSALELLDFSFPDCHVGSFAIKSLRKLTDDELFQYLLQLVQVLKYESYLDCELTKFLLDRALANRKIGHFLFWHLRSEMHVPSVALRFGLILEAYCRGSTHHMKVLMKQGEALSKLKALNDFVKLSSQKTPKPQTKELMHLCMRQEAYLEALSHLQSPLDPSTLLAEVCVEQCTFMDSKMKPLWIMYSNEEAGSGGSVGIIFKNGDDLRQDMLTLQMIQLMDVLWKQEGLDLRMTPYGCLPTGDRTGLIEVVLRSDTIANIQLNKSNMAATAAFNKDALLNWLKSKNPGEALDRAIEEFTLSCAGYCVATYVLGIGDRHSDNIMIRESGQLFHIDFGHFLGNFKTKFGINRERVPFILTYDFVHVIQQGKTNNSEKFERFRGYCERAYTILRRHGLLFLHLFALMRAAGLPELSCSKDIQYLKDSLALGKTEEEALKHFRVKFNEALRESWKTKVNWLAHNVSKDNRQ
Sequence of p110δ/p85 (P27986 whole entry partner, species assumed): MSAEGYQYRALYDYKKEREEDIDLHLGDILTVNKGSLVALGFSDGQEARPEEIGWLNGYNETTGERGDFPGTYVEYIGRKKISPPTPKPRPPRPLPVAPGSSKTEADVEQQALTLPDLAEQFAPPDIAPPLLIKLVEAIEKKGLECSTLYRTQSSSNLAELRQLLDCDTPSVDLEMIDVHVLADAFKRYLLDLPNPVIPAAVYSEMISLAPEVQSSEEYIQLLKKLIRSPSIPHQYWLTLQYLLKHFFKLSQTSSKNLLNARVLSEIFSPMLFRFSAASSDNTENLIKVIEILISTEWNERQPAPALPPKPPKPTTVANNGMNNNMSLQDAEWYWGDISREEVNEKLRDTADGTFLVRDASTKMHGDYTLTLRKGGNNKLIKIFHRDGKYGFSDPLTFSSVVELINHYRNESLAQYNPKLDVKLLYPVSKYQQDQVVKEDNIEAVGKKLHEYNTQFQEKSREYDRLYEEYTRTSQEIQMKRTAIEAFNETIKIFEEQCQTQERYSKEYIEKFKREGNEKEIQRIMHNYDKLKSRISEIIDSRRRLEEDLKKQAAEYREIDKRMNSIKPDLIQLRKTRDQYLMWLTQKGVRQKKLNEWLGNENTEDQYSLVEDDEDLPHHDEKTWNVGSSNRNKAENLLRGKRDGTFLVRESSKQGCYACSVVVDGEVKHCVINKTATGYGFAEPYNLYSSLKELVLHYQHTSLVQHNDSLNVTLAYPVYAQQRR
Sequence of p110α/p85 (P42336 whole entry): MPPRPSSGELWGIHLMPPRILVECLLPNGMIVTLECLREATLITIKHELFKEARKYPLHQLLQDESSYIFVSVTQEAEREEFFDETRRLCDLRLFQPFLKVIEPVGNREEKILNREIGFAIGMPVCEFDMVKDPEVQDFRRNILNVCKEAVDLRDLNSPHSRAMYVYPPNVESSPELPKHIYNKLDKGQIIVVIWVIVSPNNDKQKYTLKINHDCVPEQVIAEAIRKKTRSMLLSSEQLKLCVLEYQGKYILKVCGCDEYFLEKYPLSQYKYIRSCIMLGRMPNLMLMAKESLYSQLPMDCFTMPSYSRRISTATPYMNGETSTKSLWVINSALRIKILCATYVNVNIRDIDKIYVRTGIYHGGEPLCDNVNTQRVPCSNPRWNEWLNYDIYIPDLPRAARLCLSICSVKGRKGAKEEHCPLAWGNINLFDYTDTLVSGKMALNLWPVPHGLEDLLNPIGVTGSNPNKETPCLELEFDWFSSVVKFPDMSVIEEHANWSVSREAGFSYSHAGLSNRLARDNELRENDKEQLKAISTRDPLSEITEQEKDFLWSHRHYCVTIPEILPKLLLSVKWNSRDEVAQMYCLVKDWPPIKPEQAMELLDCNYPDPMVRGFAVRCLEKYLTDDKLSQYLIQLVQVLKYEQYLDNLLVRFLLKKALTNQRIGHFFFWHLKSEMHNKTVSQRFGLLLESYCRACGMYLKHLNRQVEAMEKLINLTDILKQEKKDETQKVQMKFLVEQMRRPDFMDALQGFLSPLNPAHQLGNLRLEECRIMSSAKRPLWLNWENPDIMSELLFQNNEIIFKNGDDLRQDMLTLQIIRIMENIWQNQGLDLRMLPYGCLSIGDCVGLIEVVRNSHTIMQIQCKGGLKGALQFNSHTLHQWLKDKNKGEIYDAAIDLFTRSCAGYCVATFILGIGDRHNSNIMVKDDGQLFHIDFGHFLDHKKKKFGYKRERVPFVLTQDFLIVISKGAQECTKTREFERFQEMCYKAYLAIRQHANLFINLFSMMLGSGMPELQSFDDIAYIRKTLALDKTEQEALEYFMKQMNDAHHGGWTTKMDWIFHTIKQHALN
Sequence of p110α/p85 (P27986 whole entry partner): as the sequence (P27986 whole entry partner, species assumed) above

melting point	IC50 [1] [nM]	IC50 [2] [nM]	Compound
295 °C (dec.)	< 100	< 100	COc1cccc2c1nc(C(F)F)n2-c1nc(Nc2cnc(Cl)nc2)nc(N2CCOCC2)n1 [Example 41, N-(2-chloro-5-pyrimidinyl)-4-[2-(difluoromethyl)-4-methoxy-1H-benzimidazol-1-yl]-6-(4-morpholinyl)-1,3,5-triazin-2-amine]
208 to 210 °C	< 100	< 100	COc1cccc2c1nc(C(F)F)n2-c1nc(-c2cccnc2)nc(N2CCOCC2)n1 [Example 48, 2-(difluoromethyl)-4-methoxy-1-[4-(4-morpholinyl)-6-(3-pyridinyl)-1,3,5-triazin-2-yl]-1H-benzimidazole]
209 to 211 °C	100 to 1000	100 to 1000	FC(F)c1nc2ccccc2n1-c1nc(-c2cncnc2)cc(N2CCOCC2)n1 [Example 55, 2-[2-(difluoromethyl)-1H-benzimidazol-1-yl]-6-(4-morpholinyl)-4,5′-bipyrimidine]
208 to 210 °C	< 100	< 100	COc1cccc2c1nc(C(F)F)n2-c1nc(-c2cccnc2)cc(N2CCOCC2)n1 [Example 52, 2-(difluoromethyl)-4-methoxy-1-[4-(4-morpholinyl)-6-(3-pyridinyl)-2-pyrimidinyl]-1H-benzimidazole]
238 to 241 °C	< 100	100 to 1000	COc1ncc(-c2cc(N3CCOCC3)nc(-n3c(C(F)F)nc4c(OC)cccc43)n2)cn1 [Example 57, 2-[2-(difluoromethyl)-4-methoxy-1H-benzimidazol-1-yl]-6-(4-morpholinyl)-2′-methoxy-4,5′-bipyrimidine]
96 to 98 °C	< 100	< 100	COc1cccc2c1nc(C(F)F)n2-c1nc(Nc2cnc(N(C)CCN(C)C)nc2)nc(N2CCOCC2)n1 [Example 42, N^5-[4-[2-(difluoromethyl)-4-methoxy-1H-benzimidazol-1-yl]-6-(4-morpholinyl)-1,3,5-triazin-2-yl]-N^2-[2-(dimethylamino)ethyl]-N^2-methyl-2,5-pyrimidinediamine]
222 to 224 °C	< 100	100 to 1000	COc1cccc2c1nc(C(F)F)n2-c1nc(-c2cncnc2)cc(N2CCOCC2)n1 [Example 56, 2-[2-(difluoromethyl)-4-methoxy-1H-benzimidazol-1-yl]-6-(4-morpholinyl)-4,5′-bipyrimidine]
214 to 217 °C	< 100	< 100	COc1cccc2c1nc(C(F)F)n2-c1nc(N2CCOCC2)nc(N(C)c2cncnc2)n1 [Example 45, 4-[2-(difluoromethyl)-4-methoxy-1H-benzimidazol-1-yl]-N-methyl-6-(4-morpholinyl)-N-(5-pyrimidinyl)-1,3,5-triazin-2-amine]
202 to 205 °C	< 100	< 100	CN(c1cncnc1)c1nc(N2CCOCC2)nc(-n2c(C(F)F)nc3ccccc32)n1 [Example 44, 4-[2-(difluoromethyl)-1H-benzimidazol-1-yl]-N-methyl-6-(4-morpholinyl)-N-(5-pyrimidinyl)-1,3,5-triazin-2-amine]
